The source of these data is ChEMBL document CHEMBL1152749, “Haemolytic activity, cytotoxicity and membrane cell permeabilization of semi-synthetic and natural lupane- and oleanane-type saponins” (Bioorg Med Chem, 2009).

pIC50: −log10 of the molar value.

Data set [1] concerns DLD-1. Briefly: Cell membrane permeabilization in human DLD1 cells assessed as drug level causing decrease in calcein fluorescence. Type of data set: ADME, cell-based.
Data set [2] deals with DLD-1. As to the kind of experiment: Cytotoxicity against human DLD1 cells after 48 hrs by resazurin reduction test. The conditions noted are these: DLD-1, 48 h. The format is functional, cell-based.
A short description of data set [3]: Cell membrane permeabilization in human WS1 cells assessed as drug level causing decrease in calcein fluorescence. Type of data set: ADME, cell-based.
Data set [4] concerns A549. As to the kind of experiment: Cell membrane permeabilization in human A549 cells assessed as drug level causing decrease in calcein fluorescence. Type of data set: ADME, cell-based.
Data set [5] in a line: Cytotoxicity against human WS1 cells after 48 hrs by resazurin reduction test. Type of data set: cell-based. The conditions noted are these: WS1, 48 h.
The nature of data set [6]: Toxicity in sheep erythrocytes assessed as induction of hemolysis. The conditions noted are these: read-out: HD50 (the source's name). Type of data set: cell-based, Ovis aries, Erythrocyte.
Data set [7] deals with A549. Briefly: Cytotoxicity against human A549 cells after 48 hrs by resazurin reduction test. Type of data set: functional, cell-based. As to conditions: A549, 48 h.

`C[C@@H]1O[C@@H](O[C@H]2[C@H](O[C@H]3CC[C@@]4(C)[C@@H](CC[C@]5(C)[C@@H]4CC=C4[C@@H]6CC(C)(C)CC[C@]6(C(=O)O)CC[C@]45C)[C@]3(C)CO)OC[C@H](O)[C@@H]2O)[C@H](O)[C@H](O)[C@H]1O` [ALPHA-HEDERIN]: the negative-log IC50 (pIC50) was 4.42 in data set [1]; 4.22 in data set [2]; 4.62 in data set [3]; 4.55 in data set [4]; 4.52 in data set [5]; 4.48 in data set [7]. For the same molecule, the HC50 in data set [6] was determined as 10 µM.
Consider `C=C(C)[C@@H]1CC[C@]2(C(=O)O)CC[C@]3(C)[C@H](CC[C@@H]4[C@@]5(C)CC[C@H](O[C@@H]6O[C@H](CO)[C@H](O)[C@H](O)[C@H]6O)C(C)(C)[C@@H]5CC[C@]43C)[C@@H]12`, for which the pIC50 is under 3.70 in data set [1]; under 4.00 in data set [2]; under 3.70 in data set [3]; under 3.70 in data set [4]; under 4.00 in data set [5]; under 4.00 in data set [7]. Besides, the HC50 in data set [6] was over 100 µM.
Regarding `C[C@@H]1O[C@@H](O[C@H]2[C@H](O[C@H]3CC[C@]4(C)[C@H]5CC=C6[C@@H]7CC(C)(C)CC[C@]7(C(=O)O)CC[C@@]6(C)[C@]5(C)CC[C@H]4C3(C)C)OC[C@H](O[C@@H]3O[C@H](CO)[C@@H](O)[C@H](O)[C@H]3O)[C@@H]2O)[C@H](O)[C@H](O)[C@H]1O` [HEDERACOLCHISIDE A1], the pIC50 in data set [1] is 5.40; in data set [2], 4.80; in data set [3], 5.52; in data set [4], 5.40; in data set [5], 5.24; in data set [7], 4.82. Moreover, in data set [6], the HC50 was found to be 1.7 µM.
On to `C=C(C)[C@@H]1CC[C@]2(C(=O)O)CC[C@]3(C)[C@H](CC[C@@H]4[C@@]5(C)CC[C@H](O[C@H]6OC[C@@H](O)[C@@H](O)[C@@H]6O)C(C)(C)[C@@H]5CC[C@]43C)[C@@H]12`, for which the pIC50 in data set [1] is under 3.70; in data set [2] it was 4.77; in data set [3] it was under 3.70; in data set [4] it was under 3.70; in data set [5], 4.33; in data set [7] it was 5.00. Also, the HC50 in data set [6] was over 100 µM.
As to `C=C(C)[C@@H]1CC[C@]2(CO)CC[C@]3(C)[C@H](CC[C@@H]4[C@@]5(C)CC[C@H](O[C@@H]6O[C@H](CO)[C@@H](O)[C@H](O)[C@H]6O)C(C)(C)[C@@H]5CC[C@]43C)[C@@H]12`, the negative logarithm of the IC50 (pIC50) is under 3.70 in data set [1]; under 4.00 in data set [2]; under 3.70 in data set [3]; under 3.70 in data set [4]; under 4.00 in data set [5]; under 4.00 in data set [7]. Further, in data set [6], the HC50 was over 100 µM.
In the case of `C=C(C)[C@@H]1CC[C@]2(C(=O)O[C@@H]3O[C@H](CO)[C@@H](O)[C@H](O)[C@H]3O)CC[C@]3(C)[C@H](CC[C@@H]4[C@@]5(C)CC[C@H](O[C@@H]6OC[C@H](O)[C@H](O)[C@H]6O[C@@H]6O[C@@H](C)[C@H](O)[C@@H](O)[C@H]6O)C(C)(C)[C@@H]5CC[C@]43C)[C@@H]12`, the pIC50 is under 3.70 in data set [1]; under 4.30 in data set [2]; under 3.70 in data set [3]; under 3.70 in data set [4]; under 4.30 in data set [5]; under 4.30 in data set [7]. In addition, in data set [6], the HC50 is over 100 µM.
On to `C=C(C)[C@@H]1CC[C@]2(CO)CC[C@]3(C)[C@H](CC[C@@H]4[C@@]5(C)CC[C@H](O[C@@H]6O[C@@H](CO)[C@H](O)[C@H]6O)C(C)(C)[C@@H]5CC[C@]43C)[C@@H]12`, for which the negative logarithm of the IC50 (pIC50) in data set [1] was under 3.70; in data set [2], under 4.00; in data set [3], under 3.70; in data set [4], under 3.70; in data set [5], under 4.00; in data set [7], under 4.00. Besides, in data set [6], the HC50 was over 100 µM.
Take `C=C(C)[C@@H]1CC[C@]2(C(=O)O)CC[C@]3(C)[C@H](CC[C@@H]4[C@@]5(C)CC[C@H](O[C@@H]6OC[C@H](O)[C@H](O)[C@H]6O)C(C)(C)[C@@H]5CC[C@]43C)[C@@H]12`: the negative-log IC50 (pIC50) is under 3.70 in data set [1]; 4.96 in data set [2]; under 3.70 in data set [3]; under 3.70 in data set [4]; 4.72 in data set [5]; 4.92 in data set [7]. Also, the HC50 in data set [6] is over 100 µM.
On to `C=C(C)[C@@H]1CC[C@]2(C(=O)O)CC[C@]3(C)[C@H](CC[C@@H]4[C@@]5(C)CC[C@H](O[C@@H]6O[C@@H](CO)[C@H](O)[C@H]6O)C(C)(C)[C@@H]5CC[C@]43C)[C@@H]12`, for which the negative logarithm of the IC50 (pIC50) in data set [1] is under 3.70; in data set [2], under 4.00; in data set [3], under 3.70; in data set [4] it was under 3.70; in data set [5] it was under 4.00; in data set [7] it was under 4.00. Besides, in data set [6], the HC50 was over 100 µM.
For `CC1(C)CC[C@]2(C(=O)O)CC[C@]3(C)C(=CC[C@@H]4[C@@]5(C)CC[C@H](O[C@@H]6O[C@H](CO)[C@@H](O)[C@H](O)[C@H]6O)[C@@](C)(CO)[C@@H]5CC[C@]43C)[C@@H]2C1` [Hederagenin-3-O-beta-D-glucopyranoside], the pIC50 in data set [1] is 4.05; in data set [2], 4.23; in data set [3] it was 3.99; in data set [4], 4.19; in data set [5] it was 4.49; in data set [7], 4.23. Moreover, the HC50 in data set [6] stood at 16 µM.
Consider `C=C(C)[C@@H]1CC[C@]2(C(=O)O)CC[C@]3(C)[C@H](CC[C@@H]4[C@@]5(C)CC[C@H](O[C@@H]6O[C@@H](C)[C@H](O)[C@@H](O)[C@H]6O)C(C)(C)[C@@H]5CC[C@]43C)[C@@H]12`, for which the pIC50 in data set [1] is under 3.70; in data set [2], 5.41; in data set [3], under 3.70; in data set [4], under 3.70; in data set [5] it was 4.51; in data set [7], 5.59. In data set [6], the HC50 is over 100 µM.
As to `C=C(C)[C@@H]1CC[C@]2(CO)CC[C@]3(C)[C@H](CC[C@@H]4[C@@]5(C)CC[C@H](O[C@@H]6OC[C@H](O)[C@H](O)[C@H]6O)C(C)(C)[C@@H]5CC[C@]43C)[C@@H]12`, the pIC50 is under 3.70 in data set [1]; under 4.00 in data set [2]; under 3.70 in data set [3]; under 3.70 in data set [4]; under 4.00 in data set [5]; under 4.00 in data set [7]. The HC50 in data set [6] was over 100 µM.
`C[C@@H]1O[C@@H](O[C@H]2[C@H](O[C@H]3CC[C@]4(C)[C@H]5CC=C6[C@@H]7CC(C)(C)CC[C@]7(C(=O)O)CC[C@@]6(C)[C@]5(C)CC[C@H]4C3(C)C)OC[C@H](O)[C@@H]2O)[C@H](O)[C@H](O)[C@H]1O`: the negative logarithm of the IC50 (pIC50) in data set [1] was 5.40; in data set [2], 4.52; in data set [3], 5.55; in data set [4], 5.52; in data set [5] it was 4.85; in data set [7], 4.82. Also, in data set [6], the HC50 is 2 µM.
Regarding `C=C(C)[C@@H]1CC[C@]2(C(=O)O)CC[C@]3(C)[C@H](CC[C@@H]4[C@@]5(C)CC[C@H](O[C@@H]6OC[C@H](O[C@@H]7O[C@H](CO)[C@@H](O)[C@H](O)[C@H]7O)[C@H](O)[C@H]6O[C@@H]6O[C@@H](C)[C@H](O)[C@@H](O)[C@H]6O)C(C)(C)[C@@H]5CC[C@]43C)[C@@H]12`, the negative logarithm of the IC50 (pIC50) in data set [1] was under 3.70; in data set [2], under 4.30; in data set [3], under 3.70; in data set [4], under 3.70; in data set [5] it was under 4.30; in data set [7] it was under 4.30. Besides, in data set [6], the HC50 worked out at 94 µM.
Take `CC1(C)CC[C@]2(C(=O)O)CC[C@]3(C)C(=CC[C@@H]4[C@@]5(C)CC[C@H](O)[C@@](C)(CO)[C@@H]5CC[C@]43C)[C@@H]2C1` [HEDERAGENIN]: the pIC50 in data set [1] is under 3.70; in data set [2], under 4.00; in data set [3] it was under 3.70; in data set [4], under 3.70; in data set [5], 4.11; in data set [7] it was 4.41. In data set [6], the HC50 is over 100 µM.
Consider `CC1(C)CC[C@]2(C(=O)O)CC[C@]3(C)C(=CC[C@@H]4[C@@]5(C)CC[C@H](O[C@@H]6OC[C@H](O)[C@H](O)[C@H]6O)[C@@](C)(CO)[C@@H]5CC[C@]43C)[C@@H]2C1`, for which the pIC50 in data set [1] is 4.27; in data set [2] it was 4.24; in data set [3], 4.29; in data set [4] it was 4.40; in data set [5], 4.52; in data set [7], 4.24. Also, the HC50 in data set [6] amounted to 12 µM.
`C=C(C)[C@@H]1CC[C@]2(CO)CC[C@]3(C)[C@H](CC[C@@H]4[C@@]5(C)CC[C@H](O[C@@H]6OC[C@H](O)[C@H](O)[C@H]6O[C@@H]6O[C@@H](C)[C@H](O)[C@@H](O)[C@H]6O)C(C)(C)[C@@H]5CC[C@]43C)[C@@H]12`: the pIC50 in data set [1] is under 3.70; in data set [2], under 4.00; in data set [3], under 3.70; in data set [4], under 3.70; in data set [5], under 4.00; in data set [7], under 4.00. In addition, in data set [6], the HC50 is over 100 µM.
For `CC1(C)CC[C@]2(C(=O)O)CC[C@]3(C)C(=CC[C@@H]4[C@@]5(C)CC[C@H](O)C(C)(C)[C@@H]5CC[C@]43C)[C@@H]2C1` [OLEANOLIC_ACID], the negative logarithm of the IC50 (pIC50) was under 3.70 in data set [1]; under 4.00 in data set [2]; under 3.70 in data set [3]; under 3.70 in data set [4]; under 4.00 in data set [5]; 4.57 in data set [7]. For the same molecule, the HC50 in data set [6] is over 100 µM.
